From patent US7829714B2, “Method for measuring aromatase activity” (GE Healthcare Limited, priority 2003, dated 2010)
Like-named read-outs stand apart in the source and are kept apart here.

Target: T1, CYP19 (aromatase) containing microsomes (Homo sapiens, UniProt P11511)
T1 sequence (P11511 1-503): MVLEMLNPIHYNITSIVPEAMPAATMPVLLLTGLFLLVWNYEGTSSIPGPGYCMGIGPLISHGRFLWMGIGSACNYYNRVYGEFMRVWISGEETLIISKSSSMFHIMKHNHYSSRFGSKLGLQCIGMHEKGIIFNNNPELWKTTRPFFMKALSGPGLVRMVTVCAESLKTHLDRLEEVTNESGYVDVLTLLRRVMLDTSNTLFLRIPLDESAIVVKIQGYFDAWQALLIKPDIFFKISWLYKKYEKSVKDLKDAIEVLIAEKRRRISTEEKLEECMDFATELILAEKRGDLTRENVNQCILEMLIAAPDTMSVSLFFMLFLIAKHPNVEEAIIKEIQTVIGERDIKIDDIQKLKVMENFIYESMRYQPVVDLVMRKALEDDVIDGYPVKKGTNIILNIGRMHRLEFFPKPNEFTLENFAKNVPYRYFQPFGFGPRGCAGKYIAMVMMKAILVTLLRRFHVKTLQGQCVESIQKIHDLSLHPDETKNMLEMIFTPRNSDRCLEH
Conditions: for change in intensity relative to the control: 20 μl of CYP19 aromatase preparation (FIG. 5); for decrease in intensity relative to the control reaction: 2 μM substrate, 1 mM NADPH
Method: NADPH was prepared to a final concentration of 1 mM in 100 mM disodium hydrogen phosphate buffer pH7.4.
100 μl of this reagent was dispensed in to replicate wells of a 96 well microtitre plate. To each well was dispensed 20 μl-30 μl of either the CYP19 (aromatase) containing microsomes or control microsomes (no CYP19). All microsomes were adjusted to the same protein concentration with assay buffer. The plates were incubated at 37° C. for 1 hour and then fluorescence intensity measurements were recorded on the Envision Plate Reader (Perkin Elmer, US), excitation 405 nm/emission BFP450 nm.

SMILES | fluorescence intensity, aromatase microsomes compared to control microsome preparation | change in intensity relative to the control [%] | decrease in intensity relative to the control reaction (300 of microsome preparation, 37° C. for 1 hour (FIG. 3)) [%] | decrease in fluorescence (in the absence of additional co-factor (NADPH) (FIG. 4)) [%] | decrease in fluorescence (in the presence of additional NADPH (FIG. 4)) [%] | decrease in intensity relative to the control reaction (microsome volume of 200, 37° C. for 1 hour, excitation 405 nm/emission 450 nm (FIG. 3)) [%]
C[C@]12CCC(=O)C=C1CC[C@@H]1[C@@H]2CC[C@]2(C)C(C(=O)NCCNC(=O)CCCCCn3c4ccccc4c(=O)c4ccccc43)CC[C@@H]12 (stereo partly shown) [Formula XX, 3-oxo-N-(2-{[6-(9-oxoacridin-10(9H)-yl)hexanoyl]amino}ethyl)androst-4-ene-17-carboxamide] | greater decrease in fluorescence intensity | 17.5 | 24.2 | 16 | 24 | 17.5
O=C(O)CCCCCn1c2ccccc2c(=O)c2ccccc21 [compound XVII, 6-(9-oxoacridin-10(9H)-yl)hexanoic acid, reference compound] | – | 5 | – | – | – | –
